Source: PubChem BioAssay AID2060904 (Molecular Pharmacology Branch, DTP, NCI, 2025)

System: 349418-098-R-PDC complex spheroid viability
Assay: Anticancer human tumor 349418-098-R-PDC patient-derived lung adenocarcinoma cell line growth inhibition [RAS]
Details: for IC50: curve of first compound; for viability, T/C: stronger effect = lower value; active = viability on the fitted dose curve at most 10% of control; inactive = the rest
Method in brief: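 Multi-cell-type spheroids: tumor cells plus HUVEC endothelial cells and mesenchymal stem cells. RAS-pathway inhibitors were combined with targeted agents, each dosed in half-log steps down from clinical Cmax, or from 10 microM when Cmax was unknown.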

[1] = second compound 0.00316 µM, first compound 0.0316 µM
[2] = second compound 0.00316 µM, first compound 0.1 µM
[3] = second compound 0.01 µM, first compound 0.0316 µM
[4] = second compound 0.01 µM, first compound 0.1 µM
[5] = second compound 0.0316 µM, first compound 0.0316 µM
[6] = second compound 0.0316 µM, first compound 0.1 µM
[7] = second compound 0.1 µM, first compound 0.0316 µM
[8] = second compound 0.1 µM, first compound 0.1 µM
[9] = second compound 0.316 µM, first compound 0.0316 µM
[10] = second compound 0.316 µM, first compound 0.1 µM
[11] = second compound 1 µM, first compound 0.0316 µM
[12] = second compound 1 µM, first compound 0.1 µM
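Also: spheroids exposed to compound for seven days before viability readout.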

CC(C)NCC(C(=O)N1CCN(c2ncnc3c2C(C)CC3O)CC1)c1ccc(Cl)cc1 (centres undefined) + C=CC(=O)N1CCN(c2nc(OCC3CCCN3C)nc3c(F)c(-c4nc(N)cc(C)c4C(F)(F)F)c(Cl)cc23)C(C)C1
545 nM: IC50 (second compound 0.1 µM)
386 nM: IC50 (second compound 0.00316 µM)
620 nM: IC50 (second compound 0.316 µM)
593 nM: IC50 (second compound 0.0316 µM)
inactive: viability, T/C [1] 88.2% | viability, T/C [2] 86.6% | viability, T/C (second compound 0.00316 µM, first compound 0.316 µM) 53.7% | viability, T/C (second compound 0.00316 µM, first compound 1 µM) 24.3% | viability, T/C (second compound 0.00316 µM, first compound 3.16 µM) 17.2% | viability, T/C (second compound 0.00316 µM, first compound 10 µM) 7.89% | viability, T/C [3] 102% | viability, T/C [4] 83.9% | viability, T/C (second compound 0.01 µM, first compound 0.316 µM) 39.3% | viability, T/C (second compound 0.01 µM, first compound 1 µM) 23.7% | viability, T/C (second compound 0.01 µM, first compound 3.16 µM) 15.9% | viability, T/C (second compound 0.01 µM, first compound 10 µM) 9.35% | viability, T/C [5] 78% | viability, T/C [6] 77.1% | viability, T/C (second compound 0.0316 µM, first compound 0.316 µM) 81.2% | viability, T/C (second compound 0.0316 µM, first compound 1 µM) 26.1% | viability, T/C (second compound 0.0316 µM, first compound 3.16 µM) 22.7% | viability, T/C (second compound 0.0316 µM, first compound 10 µM) 10% | viability, T/C [7] 70% | viability, T/C [8] 67.5% | viability, T/C (second compound 0.1 µM, first compound 0.316 µM) 67.6% | viability, T/C (second compound 0.1 µM, first compound 1 µM) 31.1% | viability, T/C (second compound 0.1 µM, first compound 3.16 µM) 16.1% | viability, T/C (second compound 0.1 µM, first compound 10 µM) 9.41% | viability, T/C [9] 66.8% | viability, T/C [10] 82.1% | viability, T/C (second compound 0.316 µM, first compound 0.316 µM) 76.3% | viability, T/C (second compound 0.316 µM, first compound 1 µM) 32.2% | viability, T/C (second compound 0.316 µM, first compound 3.16 µM) 24.5% | viability, T/C (second compound 0.316 µM, first compound 10 µM) 7.85% | viability, T/C [11] 72.8% | viability, T/C [12] 65.4% | viability, T/C (second compound 1 µM, first compound 0.316 µM) 71.8% | viability, T/C (second compound 1 µM, first compound 1 µM) 28.8% | viability, T/C (second compound 1 µM, first compound 3.16 µM) 25% | viability, T/C (second compound 1 µM, first compound 10 µM) 10.2%
553 nM: IC50 (second compound 1 µM)
252 nM: IC50 (second compound 0.01 µM)

CC(C)n1nc(-c2ccc3oc(N)nc3c2)c2c(N)ncnc21 + C=CC(=O)N1CCN(c2nc(OCC3CCCN3C)nc3c(F)c(-c4nc(N)cc(C)c4C(F)(F)F)c(Cl)cc23)C(C)C1
3.64 nM: IC50 (second compound 1 µM)
3.53 nM: IC50 (second compound 0.01 µM)
active: viability, T/C [1] 8.58% | viability, T/C [2] 6.85% | viability, T/C (second compound 0.0316 µM, first compound 0.01 µM) 14.1% | viability, T/C [5] 8.15% | viability, T/C [6] 5.8% | viability, T/C [7] 8.94% | viability, T/C [8] 5.94% | viability, T/C (second compound 0.316 µM, first compound 0.01 µM) 14% | viability, T/C [9] 8.74% | viability, T/C [10] 6.6% | viability, T/C [11] 8.85% | viability, T/C [12] 5.88%
3.99 nM: IC50 (second compound 0.1 µM)
inactive: viability, T/C (second compound 0.00316 µM, first compound 0.000316 µM) 85.2% | viability, T/C (second compound 0.00316 µM, first compound 0.001 µM) 90.4% | viability, T/C (second compound 0.00316 µM, first compound 0.00316 µM) 72.3% | viability, T/C (second compound 0.00316 µM, first compound 0.01 µM) 22.8% | viability, T/C (second compound 0.01 µM, first compound 0.000316 µM) 79.3% | viability, T/C (second compound 0.01 µM, first compound 0.001 µM) 124% | viability, T/C (second compound 0.01 µM, first compound 0.00316 µM) 54.2% | viability, T/C (second compound 0.01 µM, first compound 0.01 µM) 15.6% | viability, T/C [3] 7.53% | viability, T/C [4] 7.07% | viability, T/C (second compound 0.0316 µM, first compound 0.000316 µM) 76.6% | viability, T/C (second compound 0.0316 µM, first compound 0.001 µM) 115% | viability, T/C (second compound 0.0316 µM, first compound 0.00316 µM) 50.9% | viability, T/C (second compound 0.1 µM, first compound 0.000316 µM) 52.8% | viability, T/C (second compound 0.1 µM, first compound 0.001 µM) 98.9% | viability, T/C (second compound 0.1 µM, first compound 0.00316 µM) 58.2% | viability, T/C (second compound 0.1 µM, first compound 0.01 µM) 14.5% | viability, T/C (second compound 0.316 µM, first compound 0.000316 µM) 63.4% | viability, T/C (second compound 0.316 µM, first compound 0.001 µM) 90.8% | viability, T/C (second compound 0.316 µM, first compound 0.00316 µM) 49.3% | viability, T/C (second compound 1 µM, first compound 0.000316 µM) 57.6% | viability, T/C (second compound 1 µM, first compound 0.001 µM) 79.6% | viability, T/C (second compound 1 µM, first compound 0.00316 µM) 53.8% | viability, T/C (second compound 1 µM, first compound 0.01 µM) 15.2%
3.24 nM: IC50 (second compound 0.0316 µM)
3.07 nM: IC50 (second compound 0.316 µM)
5.33 nM: IC50 (second compound 0.00316 µM)
